The source of these data is patent US20250381254A1, “Augmented Acid Alpha-Glucosidase For The Treatment Of Pompe Disease” (Amicus Therapeutics, Inc., priority 2015, published 2025).

A short description of data set [1]: Population PK model of duvoglustat in plasma and tissue. The class given is in vivo, human. Particulars: typical value. As to the method: Concentration-time profiles of miglustat (200 mg) in Pompe disease patients are compared to those obtained following administration of duvoglustat in normal healthy volunteers (dose range: 50, 100, 250, 600, and 1000 mg). Because concentration-time profiles of miglustat in patients with Pompe disease are similar to those observed following dosing of duvoglustat in healthy subjects over 24 h, PK data collected for duvoglustat in peripheral tissues were used as a surrogate to model exposure to miglustat. A two-compartment model with linear elimination is used to characterize the concentration-time profiles of duvoglustat in tissues.

Data set [2] is described as follows: Specific activity of ATB200 batches. The data set is classed as biochemical. As to the method: Two batches of ATB200 with different sialic acid content were evaluated for pharmacokinetics and efficacy in Gaa KO mice.
Data set [3] concerns Gaa KO mice. The data set can be described thus: Glycogen reduction by ATB200 batches vs Lumizyme. The class given is in vivo, mouse. Conditions: 2 IV bolus injections every other week, FIGS. 37A-37D. The protocol:
In a related study, IV bolus tail vein injections of ATB200 (Batches A and B) and Lumizyme® were given to Gaa KO mice every other week for a total of 2 injections. Glycogen levels in tissues were measured 14 days after last administration.

Data set [4] in a line: Plasma GAA activity half-life of ATB200 batches after single IV bolus. The data set is classed as in vivo, mouse. Particulars: GAA activity in plasma, Gaa KO mice.
Another data set has as its target CIMPR (Homo sapiens, UniProt P11717). The data set can be described thus: CIMPR affinity chromatography of rhGAA. Particulars: fraction of total enzyme by GAA activity. The class given is binding. The protocol:
To evaluate the ability of the rhGAA in Myozyme® and Lumizyme®, the only currently approved treatments for Pompe disease, these rhGAA preparations were injected onto a CIMPR column (which binds rhGAA having M6P groups) and subsequently eluted with a free […] gradient. Fractions were collected in 96-well plate and GAA activity assayed by 4MU—α-glucose substrate. The relative amounts of bound and unbound rhGAA were determined based on GAA activity and reported as the fraction of total enzyme.

For data set [5] the following is noted: 20 to 40 mg/kg alglucosidase alfa with 4 doses of 80 mg miglustat; 13 Pompe subjects; mean; cited from earlier work.
Data set [6] in a line: Apparent plasma half-life in vivo.
The subject of data set [7] is Gaa KO mice. The data set can be described thus: Cellular dysfunction in Gaa KO mice after 2 administrations. The class given is in vivo, mouse. Particulars: 20 mg/kg ERT every other week, miglustat 10 mg/kg. As to the method:
These key muscle proteins require proper protein trafficking to the muscle cell membrane where they function. […] Alglucosidase alfa (Myozyme®) and ATB200 with and without 10 mg/kg miglustat were evaluated in Gaa KO mice at equivalent ERT dose (20 mg/kg) via an every other week dosing schedule. […] In FIGS. 32A-32D, * indicates statistically significant compared to Myozyme® alone.

By clearance is commonly meant the rate of elimination divided by the concentration.

Read-outs that look alike come from different tables or passages of the source.

Chain of CIMPR (P11717 41-2491, species assumed): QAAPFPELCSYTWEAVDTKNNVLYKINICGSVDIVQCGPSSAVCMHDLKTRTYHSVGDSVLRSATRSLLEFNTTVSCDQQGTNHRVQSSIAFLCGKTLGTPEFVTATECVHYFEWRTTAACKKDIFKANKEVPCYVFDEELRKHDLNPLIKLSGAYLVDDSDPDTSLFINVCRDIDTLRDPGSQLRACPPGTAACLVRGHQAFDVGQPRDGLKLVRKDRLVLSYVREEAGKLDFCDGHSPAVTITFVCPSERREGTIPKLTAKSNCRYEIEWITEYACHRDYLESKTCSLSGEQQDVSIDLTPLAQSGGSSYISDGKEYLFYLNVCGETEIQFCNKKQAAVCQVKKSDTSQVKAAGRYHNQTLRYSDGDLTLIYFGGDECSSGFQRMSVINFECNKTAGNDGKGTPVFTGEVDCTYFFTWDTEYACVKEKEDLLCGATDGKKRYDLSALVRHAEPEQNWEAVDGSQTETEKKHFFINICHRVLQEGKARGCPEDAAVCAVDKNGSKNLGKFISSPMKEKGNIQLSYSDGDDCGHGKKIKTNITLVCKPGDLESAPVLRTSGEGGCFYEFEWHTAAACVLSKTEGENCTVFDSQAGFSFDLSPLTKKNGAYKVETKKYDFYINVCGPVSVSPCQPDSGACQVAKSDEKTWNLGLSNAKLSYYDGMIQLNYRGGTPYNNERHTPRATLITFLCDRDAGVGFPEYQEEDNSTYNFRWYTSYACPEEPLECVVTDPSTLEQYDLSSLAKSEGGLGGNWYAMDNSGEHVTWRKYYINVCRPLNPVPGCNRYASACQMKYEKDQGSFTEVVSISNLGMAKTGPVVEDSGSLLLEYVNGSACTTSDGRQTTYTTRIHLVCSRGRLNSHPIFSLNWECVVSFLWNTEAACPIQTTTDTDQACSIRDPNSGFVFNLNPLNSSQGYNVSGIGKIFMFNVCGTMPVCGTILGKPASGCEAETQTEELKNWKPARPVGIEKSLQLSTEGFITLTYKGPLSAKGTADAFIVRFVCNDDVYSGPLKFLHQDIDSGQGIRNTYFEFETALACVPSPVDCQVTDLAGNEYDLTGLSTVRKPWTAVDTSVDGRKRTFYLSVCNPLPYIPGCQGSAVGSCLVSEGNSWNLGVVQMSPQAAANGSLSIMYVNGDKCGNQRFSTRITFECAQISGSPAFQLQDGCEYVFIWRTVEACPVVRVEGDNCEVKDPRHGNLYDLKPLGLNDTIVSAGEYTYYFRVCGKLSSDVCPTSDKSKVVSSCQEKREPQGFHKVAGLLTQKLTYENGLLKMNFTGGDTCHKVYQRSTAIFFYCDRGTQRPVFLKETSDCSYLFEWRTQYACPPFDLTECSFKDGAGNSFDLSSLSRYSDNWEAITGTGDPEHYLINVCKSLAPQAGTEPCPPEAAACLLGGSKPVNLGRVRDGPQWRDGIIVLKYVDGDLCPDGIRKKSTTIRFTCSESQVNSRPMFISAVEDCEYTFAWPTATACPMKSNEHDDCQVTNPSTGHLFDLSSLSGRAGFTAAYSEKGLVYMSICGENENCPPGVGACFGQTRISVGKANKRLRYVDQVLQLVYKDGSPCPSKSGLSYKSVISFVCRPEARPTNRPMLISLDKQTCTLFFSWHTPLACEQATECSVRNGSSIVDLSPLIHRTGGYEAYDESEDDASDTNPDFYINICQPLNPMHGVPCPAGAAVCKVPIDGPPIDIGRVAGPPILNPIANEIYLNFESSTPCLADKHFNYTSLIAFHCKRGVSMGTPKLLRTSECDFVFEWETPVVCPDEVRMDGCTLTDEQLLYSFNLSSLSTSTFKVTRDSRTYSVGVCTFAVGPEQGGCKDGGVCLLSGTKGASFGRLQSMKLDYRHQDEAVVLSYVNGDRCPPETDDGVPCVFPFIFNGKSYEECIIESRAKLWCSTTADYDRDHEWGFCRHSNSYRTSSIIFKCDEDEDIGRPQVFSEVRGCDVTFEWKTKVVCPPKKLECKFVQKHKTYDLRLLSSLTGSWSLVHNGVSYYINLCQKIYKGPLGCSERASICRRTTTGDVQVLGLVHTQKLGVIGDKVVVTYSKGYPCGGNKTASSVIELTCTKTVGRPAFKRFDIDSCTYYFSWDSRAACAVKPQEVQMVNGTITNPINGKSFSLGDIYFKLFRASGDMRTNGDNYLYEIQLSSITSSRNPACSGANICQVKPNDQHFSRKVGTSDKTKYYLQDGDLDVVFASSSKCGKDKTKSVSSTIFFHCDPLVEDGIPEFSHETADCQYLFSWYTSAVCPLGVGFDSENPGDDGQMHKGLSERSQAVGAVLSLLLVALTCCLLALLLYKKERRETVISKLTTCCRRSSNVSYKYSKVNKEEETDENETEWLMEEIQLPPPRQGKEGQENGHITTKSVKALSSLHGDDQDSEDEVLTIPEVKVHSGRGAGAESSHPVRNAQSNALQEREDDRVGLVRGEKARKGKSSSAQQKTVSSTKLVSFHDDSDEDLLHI

For `OC[C@H]1NC[C@H](O)[C@@H](O)[C@@H]1O` [duvoglustat, (2R,3R,4R,5S)-2-(hydroxymethyl)piperidine-3,4,5-triol], in data set [1] (human, plasma and tissue, read-out: Central compartment clearance (CL2) (converted)), the clearance was 3.42 mL/min. Also, the clearance in data set [1] (human, plasma and tissue, read-out: Systemic clearance (CL) (converted)) is 157 mL/min. For the same molecule, the Vd in data set [1] (human, plasma and tissue, read-out: Volume of distribution (V)) was found to be 44.5 L. For the same molecule, in data set [1], the “Apparent intercompartment clearance (CLQ)” value was found to be 40.6 L/h, the “Elimination rate constant (Keo)” value is given as 0.378, the “Intercompartment volume of distribution (VQ)” value turned out to be 61.8 L and the “Intercompartment volume of distribution within central compartment (VQ2)” value amounted to 3390 L. Moreover, in data set [1], the Lag time was 0.176 h, the “Peripheral compartment clearance (CL3)” value was 88.0 L/h, the “Peripheral volume of distribution (V2)” value amounted to 8.68 L and the “Rate constant of absorption (Ka)” value came to 1.10 h⁻¹.
As for “Batch A: batch of ATB200 with sialic acid 4.0 mol/mol protein and M6P content 3.3 mol/mol protein”, the Specific activity in data set [2] is reported as 115831 (nmol nmol 4 mu/mg protein/hr. Also, the “glycogen reduction vs Lumizyme®” value with Gaa KO mice [3] is “superior to Lumizyme® in reducing glycogen”. In addition, in data set [4], the “Half-life, Mean ± SEM” value turned out to be 30 ± 1.2 min.
As to “Batch B: batch of ATB200 with sialic acid 5.4 mol/mol protein and M6P content 2.9 mol/mol protein”, the Specific activity in data set [2] is given as 120929 (nmol nmol 4 mu/mg protein/hr. Also, in the data set on Gaa KO mice [3], the “glycogen reduction vs Lumizyme®” value was “superior to Lumizyme® in reducing glycogen”. Also, the “glycogen reduction, Batch B vs Batch A” value in the data set with Gaa KO mice [3] (similar doses) is listed as “generally more effective in reducing glycogen than Batch A”. The “Half-life, Mean ± SEM” value in data set [4] stood at 36 ± 1.8 min.
For “Myozyme®: conventional rhGAA product (alglucosidase alfa), Genzyme”, in the data set with CIMPR, the “rhGAA activity eluted prior to addition of M6P (did not bind to the CIMPR)” value stood at 73% and the “rhGAA eluted with M6P / containing M6P (CIMPR binding)” value worked out at 27%.
Regarding “[199-arginine,223-histidine]prepro-α-glucosidase (human) [alglucosidase alfa]”, in data set [5], the “increase in acid α-glucosidase activity exposure (AUC), co-administration vs alglucosidase alfa alone” value is reported as 6.8 fold. For the same molecule, the “apparent plasma half-life t1/2” value in data set [6] is recorded as ~60 min. The “autophagy (LC3 II) and lysosomal proliferation (LAMP1)” value in the data set with Gaa KO mice [7] (FIGS. 29-30) was “negligible effects towards reducing autophagy”. Also, the “lysosomal glycogen in skeletal muscles” value in the data set on Gaa KO mice [7] (FIGS. 32A-32D) is on record as “modestly reduced accumulated lysosomal glycogen in skeletal muscles”.
